Data from patent US9976141B2, “Compositions and methods for inhibiting gene expression of Hif2alpha” (Arrowhead Madison Inc., priority 2015, dated 2018).
Strand notation (5' to 3'): a small letter for the sugar, then the base; units joined by * are phosphorothioate-linked, units joined directly phosphodiester-linked; [ ] holds rarer units or linkages, { } end groups; capitals alone tell only the bases. {Alk-SMPT-C6} = Alk-SMPT-C6 linker modification (publication code); [invdT] = inverted (3'-3') thymidine; d = 2'-deoxy (DNA); m = 2'-O-methyl; f = 2'-fluoro

System: human (tumor) Hif2α (EPAS1) mRNA
Test: Hif2α knockdown in orthotopic RCC tumor bearing mice, single injection of RNAi trigger-delivery polymer conjugate, RT-qPCR (Table 7)
Assay type: in vivo
Conditions: single tail vein injection, relative to isotonic glucose
Procedure: A pCR3.1 expression vector expressing the reporter gene secreted alkaline phosphatase (SEAP) under the CMV promoter was prepared by directional cloning of the SEAP coding sequence PCR amplified from Clontech's pSEAP2-basic vector. Convenient restriction sites were added onto primers used to amplify the SEAP coding sequence for cloning into the pCR3.1 vector (Invitrogen). The resultant construct pCR3-SEAP was used to create a SEAP-expressing A498 ccRCC cell line. Briefly, pCR3-SEAP plasmid was transfected into A498 ccRCC cells by electroporation following manufacturer's recommendation. Stable transfectants were selected by G418 resistance. Selected A498-SEAP clones were evaluated for SEAP expression and integration stability.
Female athymic nude mice were anesthetized with ˜3% isoflourane and placed in the right lateral decubitus position. A small, 0.5-1 cm, longitudinally abdominal incision in the left flank was made. Using a moist cotton swab, the left kidney was lifted out of the peritoneum and gently stabilized. Just before injection, a 1.0 ml syringe was filled with the cell/Matrigel mixture and a 27 gauge needle catheter was attached to the syringe tip. The filled syringe was then attached to a syringe pump (Harvard Apparatus, model PHD2000) and primed to remove air. The tip of a 27-gauge needle catheter attached to a syringe was inserted just below the renal capsule near the caudal pole and the tip of the needle was then carefully advanced cranially along the capsule 3-4 mm. A 10 μl aliquot of 2:1 (vol:vol) cell/matrigel mixture containing about 300,000 cells was slowly injected into the kidney parenchyma using a syringe pump. The needle was left in the kidney for 15-20 seconds to ensure the injection was complete. The needle was then removed from the kidney and a cotton swab was placed over the injection site for 30 seconds to prevent leakage of the cells or bleeding. The kidney was then gently placed back into the abdomen and the abdominal wall was closed. Serum was collected every 7-14 days after implantation to monitor tumor growth using a commercial SEAP assay kit. For most studies, tumor mice were used 5-6 weeks after implantation, when tumor measurements were typically around 4-8 mm.
RGD targeted HiF2α-RNAi trigger delivery conjugates. Delivery polymers were modified using RGD-PEG-HyNic, RGD-PEG-ACit-PNP, or RDG-PEG-FCitFP-TFP and PEG-dipeptide modifying agents. The indicated amount of polymer 126 or 100A polymer was modified with 8×PEG12-ACit-PABC-PNP/0.5× aldehyde-PEG24-FCit-PABC-PNP (with RGD mimic #1-PEG-HyNic using protocol #1) and the indicated amount of the indicated Hif2α RNAi trigger. Polymer 064 was modified according to protocol 7. Kidney RCC tumor-bearing mice were generated as described and treated with a single tail vein injection of isotonic glucose (G1) or the indicated Hif2α RNAi trigger-delivery polymer conjugate. Mice were euthanized at the indicated time after injection and total RNA was prepared from kidney tumor using Trizol reagent following manufacturer's recommendation. Relative HiF2α mRNA levels were determined by RT-qPCR as described below and compared to mice treated with delivery buffer (isotonic glucose) only.
In preparation for quantitative PCR, total RNA was isolated from tissue samples homogenized in TriReagent (Molecular Research Center, Cincinnati, Ohio) following the manufacturer's protocol. Approximately 500 ng RNA was reverse-transcribed using the High Capacity cDNA Reverse Transcription Kit (Life Technologies). For human (tumor) Hif2α (EPAS1) expression, pre-manufactured TaqMan gene expression assays for human Hif2α (Catalog #4331182) and CycA (PPIA) Catalog #: 4326316E) were used in biplex reactions in triplicate using TaqMan Gene Expression Master Mix (Life Technologies) or VeriQuest Probe Master Mix (Affymetrix). […]

[1] = RNAi trigger 50 μg, polymer 064 125 μg
[2] = RNAi trigger 80 μg, polymer 126 400 μg
[3] = RNAi trigger 115 μg, polymer 100A 375 μg

For “AD03254 (antisense AUUCAUGAAAUCGUUACGUUG; sense ACGUAACGAUUUCAUGAAUT; Hif2alpha RNAi agent antisense strand; modified_base 2,4,6,8,14 /mod_base = “2′-deoxy-2′-fluoro corresponding nucleoside”; modified_base 1,3,5,7,9,10,11,12,13,15,16,17,18,19,20,21 /mod_base = “2′-O-methyl corresponding nucleoside”; modified_base 2,3,20,21 /mod_base = “5′-phosphorothioate corresponding nucleotide”; Hif2alpha RNAi agent sense strand; modified_base 7,8,9 /mod_base = “2′-deoxy-2′-fluoro corresponding nucleoside”; modified_base 1,2,3,4,5,6,10,11,12,13,14,15,16,17,18,19 /mod_base = “2′-O-methyl corresponding nucleoside”; modified_base 20 /mod_base = “3′-3′-linked nucleotide”; modi)”, which “Relative Expression day 4 (Hif2α mRNA in kidney tumor)” value [1] is on record?
The value was 0.295.

With “AD01888 (antisense UCUAGCAACAAAACCUUAATT; sense UUAAGGUUUUGUUGCUAGAT; Hif2alpha RNAi agent antisense strand; modified_base 2,4,6,8,10,12,14,15,18 /mod_base = “2′-deoxy-2′-fluoro corresponding nucleoside”; modified_base 1,3,5,7,9,11,13,16,17,19 /mod_base = “2′-O-methyl corresponding nucleoside”; modified_base 2,3,21 /mod_base = “5′-phosphorothioate corresponding nucleotide”; Hif2alpha RNAi agent sense strand; modified_base 1,3,4,7,9,11,13,15,17,19 /mod_base = “2′-deoxy-2′-fluoro corresponding nucleoside”; modified_base 2,5,6,8,10,12,14,16,18 /mod_base = “2′-O-methyl corresponding nucleoside”; modified_base 20 /mod_base = “3′-3′-linked nucleotide”; modified_base)” as the substance, how does the “Relative Expression day 4 (Hif2α mRNA in kidney tumor)” value (RNAi trigger 100 μg, polymer 064 250 μg) read?
The value was 0.209.

How did the “Relative Expression day 4 (Hif2α mRNA in kidney tumor)” value [1] turn out when “AD03011 (antisense UUUCAUGAAAUCGUUACGUUG; sense UAUACGUAACGAUUUCAUGAAAT; Hif2alpha RNAi agent antisense strand; modified_base 2,4,6,8,10,14,16,18 /mod_base = “2′-deoxy-2′-fluoro corresponding nucleoside”; modified_base 1,3,5,7,9,11,12,13,15,17,19,20,21 /mod_base = “2′-O-methyl corresponding nucleoside”; modified_base 2,3,20,21 /mod_base = “5′-phosphorothioate corresponding nucleotide”; Hif2alpha RNAi agent sense strand; modified_base 2 modified base = “2′-hydroxy corresponding nucleoside”; modified_base 10,12,16 /mod_base = “2′-deoxy-2′-fluoro corresponding nucleoside”; modified_base 1,3,4,5,6,7,8,9,11,13,14,15,17,18,19,20,21,22 /mod_base = “2′-O-methyl correspon)” was run?
The value was 0.183.

How did the “Relative Expression day 4 (Hif2α mRNA in kidney tumor)” value [2] turn out when “AD01295 (antisense TUUCAUGAAAUCGUUACGUUGGCUAU; sense UAUAUCAACGUAACGAUUUCAUGAAA; Hif2alpha RNAi agent antisense strand; modified_base 25 modified base = “2′-hydroxy corresponding nucleoside”; modified_base 2,4,6,8,10,14,16,18,20 /mod_base = “2′-deoxy-2′-fluoro corresponding nucleoside”; modified_base 3,5,7,9,11,12,13,15,17,19,21,22,23,24,26 /mod_base = “2′-O-methyl corresponding nucleoside”; modified_base 2,3,23,24 /mod_base = “5′-phosphorothioate corresponding nucleotide”; Hif2alpha RNAi agent sense strand; modified_base 2,4 modified base = “2′-hydroxy corresponding nucleoside”; modified_base 6,8,10,12,14,15,16,18,20,22,24,26 /mod_base = “2′-deoxy-2′-fluoro correspondin)” was run?
Its value is 0.22.

With “AD01476 (antisense dTfUmUfCmAfUmGfAmAfAmUfCmGfUmUfAmCfGmUdT*dT; sense ACGUAACGAUUUCAUGAAA; siRNA; sense: sugars from the 5' end fmfmfmfmfmfmfmfmfmf, [invdT] at 3' end, all phosphodiester, 5' {Alk-SMPT-C6}, methylation of C not given here; further chemistry not fully specified)” as the substance, how does the “Relative Expression day 4 (Hif2α mRNA in kidney tumor)” value [3] read?
The value was 0.32.

How did the “Relative Expression day 4 (Hif2α mRNA in kidney tumor)” value [3] turn out when “AD01554 (antisense TUUCAUGAAAUCGUUACGUTT; sense ACGUAACGAUUUCAUGAAAT; Hif2alpha RNAi agent antisense strand; modified_base 2,4,6,8,10,13,14,16,18 /mod_base = “2′-deoxy-2′-fluoro corresponding nucleoside”; modified_base 3,5,7,9,11,12,15,17,19 /mod_base = “2′-O-methyl corresponding nucleoside”; modified_base 2,3,21 /mod_base = “5′-phosphorothioate corresponding nucleotide”; Hif2alpha RNAi agent sense strand; modified_base 1,3,5,8,9,11,13,15,17,19 /mod_base = “2′-deoxy-2′-fluoro corresponding nucleoside”; modified_base 2,4,6,7,10,12,14,16,18 /mod_base = “2′-O-methyl corresponding nucleoside”; modified_base 20 /mod_base = “3′-3′-linked nucleotide”; modified_base 1)” was run?
Its value is 0.29.

With “AD01028 (antisense TAAAUCGUUACGUUGACAGTT; sense CUGUCAACGUAACGAUUUAT; Hif2alpha RNAi agent antisense strand; modified_base 2,4,6,8,10,12,14,16,18 /mod_base = “2′-deoxy-2′-fluoro corresponding nucleoside”; modified_base 3,5,7,9,11,13,15,17,19 /mod_base = “2′-O-methyl corresponding nucleoside”; modified_base 21 /mod_base = “5′-phosphorothioate corresponding nucleotide”; Hif2alpha RNAi agent sense strand; modified_base 1,3,5,7,9,11,13,15,17,19 /mod_base = “2′-deoxy-2′-fluoro corresponding nucleoside”; modified_base 2,4,6,8,10,12,14,16,18 /mod_base = “2′-O-methyl corresponding nucleoside”; modified_base 20 /mod_base = “3′-3′-linked nucleotide”; modified_base 1 /mo)” as the substance, how does the “Relative Expression day 4 (Hif2α mRNA in kidney tumor)” value [2] read?
Its value is 0.39.
